Patent publication US20030134901A1, “Lipoxin compounds and their use in treating cell proliferative disorders” (priority 1993, published 2003)

How the values were obtained:
15-PGDH = molecular target: T1, 15-PGDH (Homo sapiens, UniProt P15428); assay: 15-HETE to 15-oxo-ETE dehydrogenase activity of 100,000 g supernatants of PMA-treated HL-60 cells; format: biochemical
T1 construct: 100,000 g supernatants prepared from PMA-treated HL-60 cells converted 15-HETE to 15-oxo-ETE; endogenous in cells; host or cells: HL-60 cells treated with PMA (16 nM, 24-72 h); freeze-thaw lysate, 100,000 g supernatant
T1 sequence (P15428 1-266): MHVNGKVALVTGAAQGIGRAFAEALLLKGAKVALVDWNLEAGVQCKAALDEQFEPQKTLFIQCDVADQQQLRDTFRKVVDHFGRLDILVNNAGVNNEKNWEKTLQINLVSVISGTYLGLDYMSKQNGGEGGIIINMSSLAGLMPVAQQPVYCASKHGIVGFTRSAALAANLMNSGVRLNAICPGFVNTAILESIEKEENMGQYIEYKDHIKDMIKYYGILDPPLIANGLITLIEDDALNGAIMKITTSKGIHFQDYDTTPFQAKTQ
Experimental: (§1) Human PMN were obtained from healthy volunteers by gradient centrifugation of heparinized fresh venous blood (Böyum, A. ([…]) Scand. J. Clin. Lab. Invest. 21:77). HL-60 cells were seeded in RPMI supplemented with penicillin (100 U/ml), streptomycin (100 μ/ml), fetal bovine serum (10%) (Hyclone, Logan, Utah) and incubated (37° C. with 5% CO2 atmosphere) in plastic 250 ml flasks. Individual flasks containing […] HL-60 cells/ml were incubated in the presence or absence of phorbol 12-myristate 13-acetate (PMA) (10 or 16 nM, 24-27 h) and adherence was monitored for induction of macrophage-like phenotype as in Collins, S. J. (1987) Blood 70:1233. […]
(§2) Incubations with eicosanoids were stopped with cold methanol containing either PGB2 or 5-HETE as internal standards (5-HETE was used when 15-oxo-ETE was quantified). […] Formation of 15-oxo-ETE by 100,000 g supernatants (cf. Agins, A. P. et al. (1987) Agents Actions 21:397; Xun, C-Q. et al.(1991) Biochem. J. 279:553; and Sok, D-E. et al. (1988) Biochem. Biophys. Res. Commun. 156:524) was quantified after RP-HPLC using an ODS column (4.6 mm×25 cm) eluted with methanol/H2O/acetic acid (70:30:0.01, v/v/v) monitored at 280 nm with a flow rate of 1 ml/min. […] On-line spectra were recorded using a diode array detector (Hewlett-Packard 1040M series II) equipped with HPLC^3D ChemStation software (DOS series). […]

[1] = system: peripheral blood monocytes; assay: LXA4 metabolism by peripheral blood monocytes; format: in vitro ADME, human; conditions: within 30 s
Experimental: as §1, §2

For `CCCCC[C@H](O)/C=C/C=C\C=C\C=C\[C@@H](O)[C@@H](O)CCCC(=O)O` [LXA4, (5S, 6R, 15S)-trihydroxy-7E, 9E, 11Z, 13E-eicosatetraenoic acid], the Ki (15-PGDH; Lineweaver-Burke plots, S.E.M., n=6, read-out: Ki, competition for catalysis of 15-HETE) was 8.2 ± 2.6 µM, the “block of 15-oxo-ETE formation” value (15-PGDH; equimolar concentrations of LXA4 and 15-HETE) was “≈ 50%” and the LXA4 converted [1] was > 60%.
